# Measurements reported in ChEMBL document CHEMBL3045187, “Chemical weed control in seedbed sown onion (Allium cepa L.)” (Crop Prot, 2006).
# Columns and labels:
# [1] = test system: Malva sylvestris; assay: Herbicidal activity against Malva sylvestris assessed as total dry weight at 7 kg/ha applied as spray before seed sowing (reference value: 4.1 MT/ha); format: functional
# [2] = test system: Cyperus rotundus; assay: Herbicidal activity against Cyperus rotundus assessed as total dry weight at 7 kg/ha applied as spray before seed sowing (reference value: 4.1 MT/ha); format: functional
# [3] = test system: Chenopodiastrum murale; assay: Herbicidal activity against Chenopodium murale assessed as total dry weight at 7 kg/ha applied as spray before seed sowing (reference value: 4.1 MT/ha); format: functional
# [4] = test system: Cyperus rotundus; assay: Herbicidal activity against Cyperus rotundus assessed as total fresh weight at 7 kg/ha applied as spray before seed sowing (reference value: 23.6 MT/ha); format: functional
# [5] = test system: Malva sylvestris; assay: Herbicidal activity against Malva sylvestris assessed as total fresh weight at 7 kg/ha applied as spray before seed sowing (reference value: 23.6 MT/ha); format: functional
# [6] = test system: Chenopodiastrum murale; assay: Herbicidal activity against Chenopodium murale assessed as total fresh weight at 7 kg/ha applied as spray before seed sowing (reference value: 23.6 MT/ha); format: functional
# [7] = test system: Allium cepa; assay: Phytotoxicity in Allium cepa (onion) seedling assessed as total fresh weight at 7 kg/ha applied as spray before seed sowing (reference value: 7.71 MT/ha); format: organism-based; conditions: in vivo, other
# [8] = test system: Chenopodiastrum murale; assay: Herbicidal activity against Chenopodium murale assessed as total dry weight at 3.75 kg/ha applied as spray before seed sowing (reference value: 4.1 MT/ha); format: functional
# [9] = test system: Cyperus rotundus; assay: Herbicidal activity against Cyperus rotundus assessed as total dry weight at 3.75 kg/ha applied as spray before seed sowing (reference value: 4.1 MT/ha); format: functional
# [10] = test system: Malva sylvestris; assay: Herbicidal activity against Malva sylvestris assessed as total dry weight at 3.75 kg/ha applied as spray before seed sowing (reference value: 4.1 MT/ha); format: functional
# [11] = test system: Malva sylvestris; assay: Herbicidal activity against Malva sylvestris assessed as total fresh weight at 3.75 kg/ha applied as spray before seed sowing (reference value: 23.6 MT/ha); format: functional
# [12] = test system: Chenopodiastrum murale; assay: Herbicidal activity against Chenopodium murale assessed as total fresh weight at 3.75 kg/ha applied as spray before seed sowing (reference value: 23.6 MT/ha); format: functional
# [13] = test system: Allium cepa; assay: Phytotoxicity in Allium cepa (onion) seedling assessed as total fresh weight at 3.75 kg/ha applied as spray before seed sowing (reference value: 7.71 MT/ha); format: organism-based; conditions: in vivo, other
# [14] = test system: Cyperus rotundus; assay: Herbicidal activity against Cyperus rotundus assessed as total fresh weight at 3.75 kg/ha applied as spray before seed sowing (reference value: 23.6 MT/ha); format: functional
# [15] = test system: Malva sylvestris; assay: Herbicidal activity against Malva sylvestris assessed as total dry weight at 2.45 kg/ha applied as spray before seed sowing (reference value: 4.1 MT/ha); format: functional
# [16] = test system: Cyperus rotundus; assay: Herbicidal activity against Cyperus rotundus assessed as total dry weight at 2.45 kg/ha applied as spray before seed sowing (reference value: 4.1 MT/ha); format: functional
# [17] = test system: Chenopodiastrum murale; assay: Herbicidal activity against Chenopodium murale assessed as total dry weight at 2.45 kg/ha applied as spray before seed sowing (reference value: 4.1 MT/ha); format: functional
# [18] = test system: Allium cepa; assay: Phytotoxicity in Allium cepa (onion) seedling assessed as total fresh weight at 2.45 kg/ha applied as spray before seed sowing (reference value: 7.71 MT/ha); format: organism-based; conditions: in vivo, other
# [19] = test system: Cyperus rotundus; assay: Herbicidal activity against Cyperus rotundus assessed as total fresh weight at 2.45 kg/ha applied as spray before seed sowing (reference value: 23.6 MT/ha); format: functional
# [20] = test system: Malva sylvestris; assay: Herbicidal activity against Malva sylvestris assessed as total fresh weight at 2.45 kg/ha applied as spray before seed sowing (reference value: 23.6 MT/ha); format: functional
# [21] = test system: Chenopodiastrum murale; assay: Herbicidal activity against Chenopodium murale assessed as total fresh weight at 2.45 kg/ha applied as spray before seed sowing (reference value: 23.6 MT/ha); format: functional
# [22] = test system: Cyperus rotundus; assay: Herbicidal activity against Cyperus rotundus assessed as total fresh weight at 0.35 kg/ha applied as spray before seed sowing (reference value: 23.6 MT/ha); format: functional
# [23] = test system: Chenopodiastrum murale; assay: Herbicidal activity against Chenopodium murale assessed as total fresh weight at 0.35 kg/ha applied as spray before seed sowing (reference value: 23.6 MT/ha); format: functional
# [24] = test system: Cyperus rotundus; assay: Herbicidal activity against Cyperus rotundus assessed as total dry weight at 0.35 kg/ha applied as spray before seed sowing (reference value: 4.1 MT/ha); format: functional
# [25] = test system: Malva sylvestris; assay: Herbicidal activity against Malva sylvestris assessed as total dry weight at 0.35 kg/ha applied as spray before seed sowing (reference value: 4.1 MT/ha); format: functional
# [26] = test system: Chenopodiastrum murale; assay: Herbicidal activity against Chenopodium murale assessed as total dry weight at 0.35 kg/ha applied as spray before seed sowing (reference value: 4.1 MT/ha); format: functional
# [27] = test system: Allium cepa; assay: Phytotoxicity in Allium cepa (onion) seedling assessed as total fresh weight at 0.35 kg/ha applied as spray before seed sowing (reference value: 7.71 MT/ha); format: organism-based; conditions: in vivo, other
# [28] = test system: Malva sylvestris; assay: Herbicidal activity against Malva sylvestris assessed as total fresh weight at 0.35 kg/ha applied as spray before seed sowing (reference value: 23.6 MT/ha); format: functional
# [29] = test system: Malva sylvestris; assay: Herbicidal activity against Malva sylvestris assessed as total fresh weight at 0.75 kg/ha applied as spray before seed sowing (reference value: 23.6 MT/ha); format: functional
# [30] = test system: Cyperus rotundus; assay: Herbicidal activity against Cyperus rotundus assessed as total fresh weight at 0.75 kg/ha applied as spray before seed sowing (reference value: 23.6 MT/ha); format: functional
# [31] = test system: Chenopodiastrum murale; assay: Herbicidal activity against Chenopodium murale assessed as total fresh weight at 0.75 kg/ha applied as spray before seed sowing (reference value: 23.6 MT/ha); format: functional
# [32] = test system: Cyperus rotundus; assay: Herbicidal activity against Cyperus rotundus assessed as decrease in total dry weight at 0.75 kg/ha applied as spray during post-emergence relative to weed-infested control; format: functional; parameters: scale not given: the % may be the effect or the level left
# [33] = test system: Malva sylvestris; assay: Herbicidal activity against Malva sylvestris assessed as decrease in total dry weight at 0.75 kg/ha applied as spray during post-emergence relative to weed-infested control; format: functional; parameters: scale not given: the % may be the effect or the level left
# [34] = test system: Chenopodiastrum murale; assay: Herbicidal activity against Chenopodium murale assessed as decrease in total dry weight at 0.75 kg/ha applied as spray during postemergence relative to weed-infested control; format: functional; parameters: scale not given: the % may be the effect or the level left
# [35] = test system: Malva sylvestris; assay: Herbicidal activity against Malva sylvestris assessed as total fresh weight at 0.75 kg/ha applied as spray during post-emergence (reference value: 23.6 MT/ha); format: functional
# [36] = test system: Cyperus rotundus; assay: Herbicidal activity against Cyperus rotundus assessed as total fresh weight at 0.75 kg/ha applied as spray during post-emergence (reference value: 23.6 MT/ha); format: functional
# [37] = test system: Chenopodiastrum murale; assay: Herbicidal activity against Chenopodium murale assessed as total fresh weight at 0.75 kg/ha applied as spray during postemergence (reference value: 23.6 MT/ha); format: functional
# [38] = test system: Cyperus rotundus; assay: Herbicidal activity against Cyperus rotundus assessed as total dry weight at 0.75 kg/ha applied as spray before seed sowing (reference value: 4.1 MT/ha); format: functional
# [39] = test system: Malva sylvestris; assay: Herbicidal activity against Malva sylvestris assessed as total dry weight at 0.75 kg/ha applied as spray before seed sowing (reference value: 4.1 MT/ha); format: functional
# [40] = test system: Chenopodiastrum murale; assay: Herbicidal activity against Chenopodium murale assessed as total dry weight at 0.75 kg/ha applied as spray before seed sowing (reference value: 4.1 MT/ha); format: functional
# [41] = test system: Allium cepa; assay: Phytotoxicity in Allium cepa (onion) seedling assessed as total fresh weight at 0.75 kg/ha applied as spray during post-emergence (reference value: 7.71 MT/ha); format: organism-based; conditions: in vivo, other
# [42] = test system: Allium cepa; assay: Phytotoxicity in Allium cepa (onion) seedling assessed as total fresh weight at 0.75 kg/ha applied as spray before seed sowing (reference value: 7.71 MT/ha); format: organism-based; conditions: in vivo, other
structure (smiles),measurement,setting,value
COC(=O)c1c(Cl)c(Cl)c(C(=O)OC)c(Cl)c1Cl [DACTHAL],Activity,[1],3.63 MT/ha
same,Activity,[2],3.63 MT/ha
same,Activity,[3],3.63 MT/ha
same,Activity,[4],19 MT/ha
same,Activity,[5],19 MT/ha
same,Activity,[6],19 MT/ha
same,Activity,[7],8.2 MT/ha
CN(C)C(=O)C(c1ccccc1)c1ccccc1 [DIPHENAMIDE],Activity,[8],4.79 MT/ha
same,Activity,[9],4.79 MT/ha
same,Activity,[10],4.79 MT/ha
same,Activity,[11],21.5 MT/ha
same,Activity,[12],21.5 MT/ha
same,Activity,[13],5.16 MT/ha
same,Activity,[14],21.5 MT/ha
CNC(=O)N(C)c1nc2ccccc2s1 [METHABENZTHIAZURON],Activity,[15],2.85 MT/ha
same,Activity,[16],2.85 MT/ha
same,Activity,[17],2.85 MT/ha
same,Activity,[18],7.18 MT/ha
same,Activity,[19],9 MT/ha
same,Activity,[20],9 MT/ha
same,Activity,[21],9 MT/ha
CSc1nnc(C(C)(C)C)c(=O)n1N [METRIBUZIN],Activity,[22],17.1 MT/ha
same,Activity,[23],17.1 MT/ha
same,Activity,[24],3.32 MT/ha
same,Activity,[25],3.32 MT/ha
same,Activity,[26],3.32 MT/ha
same,Activity,[27],7.64 MT/ha
same,Activity,[28],17.1 MT/ha
CC(C)Oc1cc(-n2nc(C(C)(C)C)oc2=O)c(Cl)cc1Cl [OXADIAZON],Activity,[29],13.3 MT/ha
same,Activity,[30],13.3 MT/ha
same,Activity,[31],13.3 MT/ha
same,Activity,[32],57%
same,Activity,[33],57%
same,Activity,[34],57%
same,Activity,[35],10.8 MT/ha
same,Activity,[36],10.8 MT/ha
same,Activity,[37],10.8 MT/ha
same,Activity,[38],2.37 MT/ha
same,Activity,[39],2.37 MT/ha
same,Activity,[40],2.37 MT/ha
same,Activity,[41],15.69 MT/ha
same,Activity,[42],13.37 MT/ha
